Patent publication US7026314B2, “Therapeutic chromone compounds” (AstraZeneca AB, priority 2001, dated 2006)

system: not given; test: not given; settings: not given

Row | SMILES | melting point
1 | COc1cc(N2CCN(C)CC2)c2oc(C(=O)Nc3ccc(N4CCOCC4)cc3)cc(=O)c2c1 [Example 31, 6-Methoxy-8-(4-methyl-piperazin-1-yl)-4-oxo-4H-chromene-2-carboxylic acid (4-morpholin-4-yl-phenyl)-amide] | 234 to 236 °C
2 | COc1cc(N2CCN(C)CC2)c2oc(C(=O)Nc3ccc(N4CCN(C(=O)CCO)CC4)cc3)cc(=O)c2c1 [Example 68, 6-Methoxy-8-(4-methyl-piperazin-1-yl)-4-oxo-4H-chromene-2-carboxylic acid {4-[4-(3-hydroxy-propanoyl)-piperazin-1-yl]-phenyl}-amide] | 195 to 197 °C
3 | CN1CCN(c2cccc3c(=O)cc(-c4nc5ccc(N6CCOCC6)cc5o4)oc23)CC1 [Example 21, 8-(4-Methyl-piperazin-1-yl)-2-(6-morpholin-4-yl-benzooxazol-2-yl)-chromen-4-one] | 158.1 to 158.8 °C
4 | CN1CCN(c2cccc3c(=O)cc(C(=O)Nc4ccc(N5CCOCC5)cc4O)oc23)CC1 [Example 22, 8-(4-Methyl-piperazin-1-yl)-4-oxo-4H-chromene-2-carboxylic acid (2-hydroxy-4-morpholin-4-yl-phenyl)-amide] | 248.4 to 249.6 °C
5 | CN1CCN(c2cccc3c(=O)cc(C(=O)Nc4ccc(N5CCOCC5)cc4)oc23)CC1 [Example 1, 8-(4-methyl-1-piperazinyl)-N-[4-(4-morpholinyl)phenyl]-4-oxo-4H-chromene-2-carboxamide] | 217 to 218 °C (dec.)

Now from value to compound:

Row | melting point | SMILES
6 | 215 to 216 °C | CN1CCN(c2cccc3c2OC(C(=O)Nc2ccc(N4CCOCC4)cc2)CC3)CC1 (racemic) [Example 75, 8-(4-Methyl-piperazin-1-yl)-chroman-2-carboxylic acid(4-morpholin-4-yl-phenyl)-amide]
7 | 233 to 234 °C | CCS(=O)(=O)N1CCN(c2ccc(NC(=O)c3cc(=O)c4cc(F)cc(N5CCN(C)CC5)c4o3)cc2)CC1 [Example 71, 6-Fluoro-8-(4-methyl-piperazin-1-yl)-4-oxo-4H-chromene-2-carboxylic acid [4-(4-ethanesulfonyl-piperazin-1-yl)-phenyl]-amide]
8 | 215 to 216 °C | CN1CCN(c2cccc3c2OC(C(=O)Nc2ccc(N4CCOCC4)cc2)CC3=O)CC1 (racemic) [Example 78, racemic-8-(4-methyl-piperazin-1-yl)-4-oxo-chroman-2-carboxylicacid (4-morpholin-4-yl-phenyl)-amide]
9 | 215 °C (dec.) | CN1CCN(c2cccc3c2OC(C(=O)Nc2ccc(N4CCOCC4)cc2)CC3=O)CC1 (single isomer, unassigned) [Example 80, 8-(4-Methyl-piperazin-1-yl)-4-oxo-chroman-2-carboxylic acid (4-morpholin-4-yl-phenyl)-amide(slowerrunning isomer).]
10 | 205.5 to 207 °C | CN1CCN(c2cccc3c2OC(C(=O)Nc2ccc(N4CCOCC4)cc2)CC3)CC1 (single isomer, unassigned; (-)) [Example 77, (−)-8-(4-Methyl-piperazin-1-yl)-chroman-2-carboxylic acid (4-morpholin-4-yl-phenyl)-amide]
11 | 216 °C (dec.) | CN1CCN(c2cccc3c2OC(C(=O)Nc2ccc(N4CCOCC4)cc2)CC3=O)CC1 (single isomer, unassigned) [Example 79, 8-(4-Methyl-piperazin-1-yl)-4-oxo-chroman-2-carboxylic acid (4-morpholin-4-yl-phenyl)-amide(fasterrunning isomer)]
12 | 206 to 207 °C | CN1CCN(c2cccc3c2OC(C(=O)Nc2ccc(N4CCOCC4)cc2)CC3)CC1 (single isomer, unassigned; (+)) [Example 76, (+)-8-(4-Methyl-piperazin-1-yl)-chroman-2-carboxylic acid (4-morpholin-4-yl-phenyl)-amide]
13 | 195 to 199 °C | CN1CCN(c2cc(F)cc3c(=O)cc(C(=O)Nc4ccc(N5CCN(C(=O)CCO)CC5)cc4)oc23)CC1 [Example 73, 6-Fluoro-8-(4-methyl-piperazin-1-yl)-4-oxo-4H-chromene-2-carboxylic acid {4-[4-(3-hydroxy-propanoyl)-piperazin-1-yl]-phenyl}-amide]

target: 5-HT1B and 5HT1D receptors; test: not given; settings: saturation studies, guinea pig cortex membranes; read-out: Kd value of [3H]GR125743; cited from earlier work

Row | SMILES | Kd [nM]
14 | COc1ccc(NC(=O)c2ccc(-c3ccncc3)c(C)c2)cc1N1CCN(C)CC1 [[^3H]-GR125743] | 0.046 ± 0.004

system: guinea pigs; test: learned helplessness test in guinea pigs; format: in vivo; settings: guinea pig
Text: The utility of the compounds for example to treat depression may be shown via a learned helplessness test in guinea pigs, which is used extensively as correlative to antidepressant activity in humans. The learned helplessness test may be carried out as follows: Seventy male Hartley guinea pigs, each weighing about 350–425 gm are fed ad lib, and are housed under a 12-hour light/dark cycle. The procedure consists of two phases: The induction phase and the avoidance training phase. In the induction phase, subjects are placed into standard shuttle cages (20 L×16 W×21 centimeters H) which are fitted with a grid floor. Electrical stimulation (1.25 mA, 10 sec duration) is delivered to the floor of the cage every 90-sec during 1 hour daily sessions. Subjects have no opportunity to escape or to avoid shocks. Induction is conducted for 2 consecutive days.
In avoidance training, testing is also conducted in the shuttle cages, except that the subjects are not returned to the same chamber in which induction had occurred. Additionally, all cages are fitted with a partition with an arch in the center of the cage, through which animals can pass between the left and right halves of the cage. The procedure employed is a standard shuttle avoidance procedure in which a compound, conditioned stimulus (a 10-sec presentation of a tone and turning on of a lamp on the side of the cage that the guinea pig was occupying) serves to indicate presentation of electrical current to the floor of the cage. Shock is presented for a 5 sec period, 5 sec after initiation of the conditioned stimulus. Entry into the opposite side of the shuttle cage via the arched partition prior to shock onset results in the end of the trial (avoidance response). If shock is delivered, entry into the opposite side of the cage results in termination of the shock and CS (escape). Reversal of learned helplessness in the induction subjects correlates to antidepressant activity of the test compound.
Avoidance training, 45-min in duration, is conducted on 2 consecutive days, beginning 48 hr after the final induction session. Seventy subjects are assigned to 1 of 6 groups of 11–12 animals. The groups are as follows:
Groups 2–6 are given induction and avoidance training sessions. Injections are administered immediately following induction sessions and 1 hour prior to avoidance training sessions. A second injection is administered 7–8 hours following the first injection, for a total of 9 injections administered over 5 days. No injections are administered following the final avoidance training session.
Compounds of the present invention may be administered in a volume of 1 mL/kg bwt. Imipramine is dissolved in DI water. The compounds are dissolved in DI water, to which was added a few drops of lactic acid (pH 5.5). […]

Row | SMILES | activity in the learned helplessness assay for antidepressant/antianxiety activity
15 | COc1cc(N2CCN(C)CC2)c2oc(C(=O)Nc3ccc(N4CCOCC4)cc3)cc(=O)c2c1 [Example 31, 6-Methoxy-8-(4-methyl-piperazin-1-yl)-4-oxo-4H-chromene-2-carboxylic acid (4-morpholin-4-yl-phenyl)-amide] | demonstrate activity
16 | CCS(=O)(=O)N1CCN(c2ccc(NC(=O)c3cc(=O)c4cc(F)cc(N5CCN(C)CC5)c4o3)cc2)CC1 [Example 71, 6-Fluoro-8-(4-methyl-piperazin-1-yl)-4-oxo-4H-chromene-2-carboxylic acid [4-(4-ethanesulfonyl-piperazin-1-yl)-phenyl]-amide] | demonstrate activity
17 | CCC(=O)N1CCN(c2ccc(NC(=O)c3cc(=O)c4cc(F)cc(N5CCN(C)CC5)c4o3)cc2)CC1 [Example 72, 6-Fluoro-8-(4-methyl-piperazin-1-yl)-4-oxo-4H-chromene-2-carboxylic acid [4-(4-propionyl-piperazin-1-yl)-phenyl]-amide] | demonstrate activity
18 | CCC(=O)N1CCN(c2ccc(NC(=O)c3cc(=O)c4cc(OC)cc(N5CCN(C)CC5)c4o3)cc2)CC1 [Example 44, 6-Methoxy-8-(4-methyl-piperazin-1-yl)-4-oxo-4H-chromene-2-carboxylic acid [4-(4-propionyl-piperazin-1-yl)-phenyl]-amide] | demonstrate activity

target: T1, 5-HT1B receptors (Homo sapiens, UniProt P28222); test: 5-HT1b binding assay, competition with [3H]-GR125743 on CHO cell membranes; settings: CHO membranes expressing 5-HT1B and 5-HT1D receptors
T1 construct: expressed in transfected cells; host or cells: CHO (stably transfected), frozen membrane preparations
Text: Other assays that may be used to measure for example affinity of compounds of the present invention for 5HT1B and 5HT1D receptors are described in J. Med. Chem 41:1218–1235, 1228 (1998) and J. Med. Chem 42:4981–5001, (1999) and incorporated by reference herein. These assays may be used with some modifications: Frozen membrane preparations of a stably transfected chinese hamster ovary (CHO) cell line expressing 5-HT1B receptors and 5-HT1D receptors are thawed rapidly, briefly vortexed, and diluted in assay buffer (AB) containing 50 mM Tris-HCl, 4 mM MgCl2, 4mM CaCl2, 1 mM EDTA, and adjusted to pH 7.4 with NaOH. Final protein concentrations are −0.185 mg/ml for 5-HT1B, and 0.4 mg/ml for 5-HT1D membranes. Test compounds are evaluated in competition assays using [^3H]-GR125743 (Amersham). The ligand concentration in both assays was 0.27 nM. […] The 5-HT1B and 5-HT1D assays are performed simultaneously on one 96-well assay plate, one drug/compound per plate. Ten serial dilutions (1 uM to 4 pM, final concentration) of compound are prepared in DMSO from 10 mM stock solutions. Incubation mixtures are prepared in quadruplicate in 96-deep well assay plates (Matrix 1 ml). […] The plates are then counted on a Packard TopCount to determine CPM's per well. Ki values are determined for each test compound utilizing the graphic and analytical software package, GraphPad Prism. […]

T1 sequence (P28222 whole entry): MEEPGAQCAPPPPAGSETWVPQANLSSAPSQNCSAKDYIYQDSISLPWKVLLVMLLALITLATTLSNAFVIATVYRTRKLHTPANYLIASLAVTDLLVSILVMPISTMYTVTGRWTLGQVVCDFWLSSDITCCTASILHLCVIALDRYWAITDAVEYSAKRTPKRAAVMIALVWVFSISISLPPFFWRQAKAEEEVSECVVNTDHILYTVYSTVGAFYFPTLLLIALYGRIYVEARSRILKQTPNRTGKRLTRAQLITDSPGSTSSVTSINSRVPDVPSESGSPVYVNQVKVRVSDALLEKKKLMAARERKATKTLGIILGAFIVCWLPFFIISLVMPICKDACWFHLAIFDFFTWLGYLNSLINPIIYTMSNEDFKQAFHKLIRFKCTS

Row | Kd [nM] | SMILES
19 | 0.15 to 0.25 | COc1ccc(NC(=O)c2ccc(-c3ccncc3)c(C)c2)cc1N1CCN(C)CC1 [[^3H]-GR125743]
